Converted amounts (≈) assume the structure as drawn. Read-outs that look alike come from different tables or passages of the source.
Legend:
Assay type in all cases: cell-based
[1] = system: Haemophilus parainfluenzae ATCC 49247; test: MIC, microscale broth dilution drug sensitivity test; conditions: ATCC49247; Haemophilus parainfluenzae ATCC 49247; Aerobic; read-out: MIC
Protocol: (§1) In this embodiment, compound I-rifamycin-quinolizidone dual-action molecule is used in a drug sensitivity test on pathogenic bacteria associated with hepatic encephalopathy, the pathogenic bacteria including the above ammonia-producing bacteria. Except that Haemophilus is tested using the microscale broth dilution method, all the other bacteria are tested using the agar dilution method consistent with that in the Guideline of the Clinical and Laboratory Standards Institute (CLSI; 1-3). All the other drug susceptibility tests are performed under anaerobic conditions except that some selective isolates are tested under both aerobic and anaerobic conditions. Control compounds include metronidazole, rifampicin, clindamycin (under anaerobic conditions) and ciprofloxacin (under aerobic and anaerobic conditions). The tested clinical isolates may be reference strains obtained from American Type Culture Collection, ATCC, Manassas, Va. After being received, the strains are respectively inoculated on appropriate agar plates and placed under optimized conditions for growth. The growing strains are cloned in the broth containing cryoprotectant to prepare bacterial suspensions, and the bacterial suspensions are subpackaged and then stored in freezing at −80° C. Before test, the frozen bacteria are inoculated into appropriate agar dishes and cultured for growth. Anaerobic bacteria grow for 48 hours at 35° C. in a Bactron II oxygen-free cabinet (Shel Lab, Cornelius, Oreg.) before test. Haemophilus Test Medium (HTM, Teknova, Hollister, Calif.; Art. No.: 895120) is used to perform drug sensitivity test on Hemophilus using the microscale broth dilution method under aerobic and anaerobic conditions. Preparation and storage of all the above broths are performed in accordance with CLSI (1-3).

[2] = system: Haemophilus influenzae ATCC 49247; test: as above
Protocol: as §1

[3] = system: Bacteroides vulgatus JMI 927011; test: MIC, agar dilution drug sensitivity test; conditions: Phocaeicola vulgatus, JMI927011
[4] = system: Staphylococcus saprophyticus JMI 2016_703; test: MIC, agar dilution drug sensitivity test; conditions: Aerobic
[5] = system: Streptococcus salivarius ATCC 25975; test: MIC, agar dilution drug sensitivity test; conditions: Streptococcus salivarius, ATCC25975, Streptococcus salivarius ATCC 25975, read-out: MIC
[6] = system: Corynebacterium urealyticum JMI 2015_30; test: MIC, agar dilution drug sensitivity test; conditions: Aerobic
[7] = system: Proteus mirabilis JMI 933599; test: MIC, agar dilution drug sensitivity test; conditions: JMI933599, Table 1
[8] = system: Proteus vulgaris ATCC 1331; test: MIC, agar dilution drug sensitivity test; conditions: Proteus vulgaris, ATCC1331, Proteus vulgaris ATCC 1331, read-out: MIC
[9] = system: Clostridium difficile ATCC 700057; test: MIC, agar dilution drug sensitivity test; conditions: Clostridioides difficile, ATCC700057
[10] = system: Clostridium perfringens ATCC 13124; test: microbe, parasite or virus in culture; conditions: ATCC13124
[11] = ATCC49247, Haemophilus influenzae ATCC 49247, Aerobic
[12] = ATCC49247, Haemophilus influenzae ATCC 49247, Anaerobic

With `O=C(O)c1cn(C2CC2)c2cc(N3CCNCC3)c(F)cc2c1=O` [Ciprofloxacin, ciprofloxacin] the MIC [1] was ≤ 0.12 µg/mL, the MIC [2, 11] was ≤ 0.12 µg/mL and the MIC [2, 12] was ≤ 0.12 µg/mL. For the same compound, the MIC [3] was > 16 µg/mL, the MIC [4] was 1 µg/mL (≈ 3.02 µM) and the MIC ([5]; Aerobic) was 1 µg/mL (≈ 3.02 µM). The MIC ([5]; Anaerobic) was 2 µg/mL (≈ 6.04 µM), the MIC [6] was > 16 µg/mL and the MIC [7] was 0.0015 µg/mL (≈ 0.00453 µM). The MIC ([8]; Aerobic) was 0.03 µg/mL (≈ 0.0905 µM) and the MIC ([8]; Anaerobic) was 0.03 µg/mL (≈ 0.0905 µM).
`CO[C@H]1/C=C/O[C@@]2(C)Oc3c(C)c(O)c4c(O)c(c(/C=N/N5CCC(N(C)C6([C@@H]7CCN(c8c(F)cn9c(=O)c(C(=O)O)cc(C%10CC%10)c9c8C)C7)CC6)CC5)c(O)c4c3C2=O)NC(=O)/C(C)=C\C=C\[C@H](C)[C@H](O)[C@@H](C)[C@@H](O)[C@@H](C)[C@H](OC(C)=O)[C@@H]1C` [Compound I, (R)-3-[(4-{1-[1-(3-carboxy-1-cyclopropyl-7-fluoro-9-methyl-4-oxo-4H-quinolizine-8-yl)-pyrrolidin-3-yl-cyclopropyl]-methylamino}-piperidin-1-ylimino)-methylene]-rifamycin SV] showed an MIC [1] of 0.25 µg/mL (≈ 0.207 µM), an MIC [2, 11] of 0.12 µg/mL (≈ 0.0996 µM) and an MIC [2, 12] of 0.12 µg/mL (≈ 0.0996 µM). For the same compound, the MIC [3] was 16 µg/mL (≈ 13.3 µM), the MIC [4] was 0.5 µg/mL (≈ 0.415 µM) and the MIC ([5]; Aerobic) was 0.5 µg/mL (≈ 0.415 µM). The MIC ([5]; Anaerobic) was > 64 µg/mL, the MIC [6] was 0.03 µg/mL (≈ 0.0249 µM) and the MIC [9] was 4 ng/mL (≈ 0.00332 µM). The MIC [10] was 0.03 µg/mL (≈ 0.0249 µM), the MIC [7] was 8 µg/mL (≈ 6.64 µM) and the MIC ([8]; Aerobic) was 0.5 µg/mL (≈ 0.415 µM). For the same compound, the MIC ([8]; Anaerobic) was > 64 µg/mL.

Source: patent US20200061047A1, “NEW USE OF RIFAMYCIN-QUINOLIZIDONE DUAL-ACTION MOLECULE” (TenNor Therapeutics Limited, priority 2017, published 2020)
